In patent US6331555A, “Treatment of platelet derived growth factor related disorders such as cancers” (priority 1999, dated 2001):
Like-named read-outs stand apart in the source and are kept apart here.

How the values were obtained:
[1] = tested on: U1242 cells; test: Cytotoxicity in U1242 cells, MTT; type: cell-based, human; settings: for CC50: Homo sapiens, read-out: CYTOXICITY MTT U1242 LD50, heading: CYTOXICITY MTT U1242 LD50; for LD50 compared to A10: MTT or LDH
Method: (§1) The cytotoxicity of each drug was also determined. The cells were plated as described above. Following incubation with drug, cell survival was measured by an MTT assay as described by Mossman J. Immunol. Methods 65:55-63 (1983), or by measuring the amount of LDH released (Korzeniewski and Callewaert, J. Immunol. Methods 64:313 (1983); Decker and Lohmann-Matthes, J. Immunol. Methods 115:61 (1988) .

[2] = tested on: U1242 cells; test: Cytotoxicity in U1242 cells, LDH; type: cell-based; settings: Homo sapiens, read-out: CYTOXICITY LDH U1242 LD50
Method: as §1

[3] = tested on: C6 cells; test: C6 SRB growth assay; type: cell-based, rat
[4] = tested on: C6 glioma cells; test: C6 glioma SC xenograft in mice; type: in vivo; settings: for inhibition in vivo at 15 mg/kg: Rattus norvegicus, C6 glioma, sc, read-out: C6 in vivo EFFICACY
Method in brief: (§2)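 C6 (3×10^6) or SKOV-3 (1×10^7) cells in PBS were implanted into the hind flank of female Balb/c nu/nu mice on Day 0; U87MG and U118MG went into athymic mice. Tumors were caliper-measured over 3–6 weeks, with volume as length×width×height. P values came from Student's t-test.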

[5] = C6 glioma SC xenograft in mice; type: in vivo; settings: rat, in vivo, ip; for mortality at 336 h: 15 mg/kg
Method in brief: as §2

[6] = molecular target: PDGFR (Homo sapiens, UniProt P09619); test: Receptor tyrosine kinase inhibition, PDGFR; type: cell-based; parameters: U1242 (PDGF-β receptor); host or cells: U1242 glioma cells (ELISA); settings: read-out: PDGFR IC50
PDGFR, sequence (P09619 33-1106): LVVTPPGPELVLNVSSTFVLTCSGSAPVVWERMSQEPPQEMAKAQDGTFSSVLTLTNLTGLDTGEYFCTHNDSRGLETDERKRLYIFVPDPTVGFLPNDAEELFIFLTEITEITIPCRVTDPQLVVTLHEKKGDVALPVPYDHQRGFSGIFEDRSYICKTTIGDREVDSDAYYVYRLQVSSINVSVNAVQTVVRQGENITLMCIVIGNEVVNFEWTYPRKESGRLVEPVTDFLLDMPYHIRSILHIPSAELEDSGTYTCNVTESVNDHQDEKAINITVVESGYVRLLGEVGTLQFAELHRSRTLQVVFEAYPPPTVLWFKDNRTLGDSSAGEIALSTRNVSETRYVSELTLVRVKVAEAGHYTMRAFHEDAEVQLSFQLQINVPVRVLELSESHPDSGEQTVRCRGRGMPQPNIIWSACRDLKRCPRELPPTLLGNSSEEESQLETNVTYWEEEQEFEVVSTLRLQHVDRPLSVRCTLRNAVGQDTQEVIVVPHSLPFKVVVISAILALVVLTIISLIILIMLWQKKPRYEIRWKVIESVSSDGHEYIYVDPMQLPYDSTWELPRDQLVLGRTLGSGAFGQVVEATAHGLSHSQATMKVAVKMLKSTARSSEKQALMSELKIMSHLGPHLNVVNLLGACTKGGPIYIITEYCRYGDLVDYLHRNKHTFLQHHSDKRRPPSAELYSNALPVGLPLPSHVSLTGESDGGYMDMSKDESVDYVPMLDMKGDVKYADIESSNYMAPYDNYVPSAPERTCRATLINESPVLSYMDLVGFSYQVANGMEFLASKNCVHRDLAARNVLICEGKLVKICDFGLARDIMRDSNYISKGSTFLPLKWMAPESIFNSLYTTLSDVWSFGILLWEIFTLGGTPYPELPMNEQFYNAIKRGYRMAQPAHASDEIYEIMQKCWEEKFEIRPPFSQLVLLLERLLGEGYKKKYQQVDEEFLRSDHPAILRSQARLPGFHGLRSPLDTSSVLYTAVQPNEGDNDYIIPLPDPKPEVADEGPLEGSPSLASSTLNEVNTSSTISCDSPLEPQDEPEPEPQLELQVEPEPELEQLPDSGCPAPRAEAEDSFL
Method: For western blotting, cells were plated in 2 mL growth medium into 6-well dishes (500,000 cells per well) and allowed to attach overnight. […] The plates were then incubated overnight at 37° C., ambient CO2. […] After a 7 min incubation at room temperature with ligand, the plates were put on ice and washed three times with 1 mL ice-cold PBS plus 1 mM orthovanadate. Lysis was achieved by pipetting cells in 0.5 mL of buffer containing 50 mM Tris, pH 7.4, 10% glycerol, 1% NP-40, 2 mM EDTA, 1 mM sodium vanadate (Na3 VO4), 10 mM pyrophosphate, 1 mM PMSF, […]. A 300 μL aliquot of each lysate was immediately added to 100 μL 4×Laemmli sample buffer ([…] Tris pH 6.9, 20% glycerol, 7% SDS, 5 mM EDTA, 5% β-mercaptoethanol) containing phosphatase inhibitors, 2 mM Na3 VO4 and 10 mM pyrophosphate. Samples were boiled for 5 min, frozen in dry ice-ethanol, and stored at -80° C. […] The integrity of the protein-to-membrane transfer was determined by staining with 1% Ponceau S in 5% acetic acid for 5 min. After destaining in several distilled water rinses, the membrane was soaked overnight in blocking buffer containing 5% milk in Tris-buffered saline, 0.05% Tween 20. Phosphotyresine was detected by incubating the membrane (1 hr at room temperature) with an anti-phosphotyosine antiserum diluted in blocking buffer at 1:3000. […] The antibodies were visualized using ECL reagent from Amersham and by exposure to Fuji RX film.
For ELISA assays, cells were grown to 80-90% confluency in growth medium and seeded in 96-well tissue culture plates in 0.5% serum at 25,000 to 30,000 cells per well. After overnight incubation in 0.5% serum-containingmedium, cells were changed to serum-free medium and treated with test compound for 2 hr in a 5% CO2, 37° C. incubator. […] Lysates were incubated with shaking for 1 hr at room temperature. The plates were washed with TBST four times and then incubated with polyclonol anti-phosphotyrosine antibody at room temperature for 30 min. Excess anti-phosphotyrosine antibody was removed by rinsing the plate with TBST four times. Goat anti-rabbit IgG antibody was added to the ELISA plate for 30 min at room temperature followed by rinsing with TBST four more times.
The ability of different compound to inhibit different receptor tyrosine kinases was tested.

[7] = Ex vivo conversion of A10 to B11 in human plasma
[8] = Ex vivo conversion of A10 to B11 in rat plasma
Method: Plasma was prepared and frozen in liquid nitrogen. Tissues and organs were resected and immediately frozen in liquid nitrogen. After the addition of an internal standard, plasma samples were acidified with HCl and extracted with acetonitrile. The acetonitrile fraction was evaporated to dryness in a vacuum centrifuge with heating and redissolved in methanol. Tissue and organ samples were homogenized according to the weight ratio of 1:5 (w:v) in 50 mM Tris-HCl, pH 7.4, at 20,000 rev/min, using a tissue homogenizer (Brinkmann Polytron Model PT3000). After the addition of an internal standard, the homogenate was acidified with HCl and then extracted with acetonitrile. The acetonitrile fraction was then extracted with an equal volume of diethyl ether. The ether fraction was evaporated to dryness in a vacuum centrifuge with heating and redissolved in methanol.
Samples for HPLC analysis were injected onto a Hewlett Packard Hypersil 5-μm C18 cartridge column (100×4.6 mm). The mobile phase was methanol:35 mM KH2 PO4 (pH 4.5) 55:45 containing 4 mM triethylamine. The flow rate was 1.2 mL/min. The compounds were monitored by UV absorption at 254 nm using a Hewlett-Packard diode-array detector (HP Model 1090). Plasma and tissue concentrations were determined from standard curves using peak area for quantitation. […]

[9] = tested on: RR-SRC peptide substrate; settings: cited from earlier work
[10] = heading: CYTOXICITY LDH U1242 LD50
[11] = Rattus norvegicus, C6; read-out: C6 SRB IC50

For `CN(C)CCCn1cc(C=C(C#N)c2[nH]nc(N)c2C#N)c2ccccc21` [Compound D15], the CC50 [1] was 80 µM.
`Cc1cc2nc(-c3ccccc3)c(=O)[nH]c2cc1C` [Compound G18] showed a CC50 [2] of over 100 µM.
For `COc1cc2ncc(-c3ccccc3)nc2cc1OC` [Compound G14], the “LD50 compared to A10” value [1] was “LD50 less than A10”, the CC50 [2, 10] was over 100 µM and the IC50 [3, 11] was over 50 µM. For the same compound, the inhibition in vivo at 15 mg/kg ([4]; at 15 mg/kg) was 36% and the mortality at 336 h [5] was 0%.
Compound `N#CC(=Cc1c[nH]c2ccccc12)C(N)=S` [Compound D11] has a CC50 [1] of 90 µM.
In the case of `c1ccc(-c2cnc3cc4ccccc4cc3n2)cc1` [Compound G22], the CC50 [2] is reported as over 100 µM, the IC50 [3, 11] is reported as over 6 µM and the IC50 [6] is reported as 14 µM. The “C6 in vivo EFFICACY” value ([4]; at 20 mg/kg) was “no effect” and the mortality ([5]; 20 mg/kg) was 0%.
Work on `N#CC(=Cc1c[nH]c2ccccc12)c1[nH]nc(N)c1C#N` [Compound D14] yielded a CC50 [2] of over 100 µM and an IC50 [6] of 47 µM.
With `O=c1c2ccccc2nc(C=Cc2ccc(O)c(O)c2)n1CCO` [Compound F10] the IC50 [3, 11] was over 12.5 µM.
For `Cc1cc2ncc(-c3ccccc3)nc2cc1C` [Compound G13], the CC50 [1] was 100 µM, the “LD50 compared to A10” value [1] was “LD50 less than A10” and the CC50 [2, 10] was over 100 µM. It also gave an IC50 ([3]; Rattus norvegicus, C6, read-out: C6 SRB IC50) of over 50 µM, an inhibition in vivo at 15 mg/kg [4] of 12% and a mortality at 336 h [5] of 0%.
With `Cc1oncc1C(=O)Nc1ccc(C(F)(F)F)cc1` [Compound A10, 5-methylisoxazole-4 carboxylic acid-(4-trifluromethyl)-anilide] the IC50 ([3]; Rattus norvegicus, C6; PDGF-R expression ++; read-out: SRB) was 0.3 µM, the “time of complete conversion to B11” value ([7]; 25° C., human plasma) was at most 21 h and the “A10 remaining, co-incubation of B11 and A10” value ([7]; fresh human plasma, after 21 hr) was “No A10 was detected after 21 hr”. For the same compound, the “conversion to B11 in heat-inactivated plasma” value ([7]; human, 15 min at 60° C.) was “does not occur”, the “inhibition in tumor growth” value ([4]; 15 mg/kg/day (DMSO), after 20 days) was “greater than 90%” and the “% Inhibition” value ([4]; 15 mg/kg/day, DMSO) was 90%. The “% Inhibition” value ([4]; 15 mg/kg/day, PBTE) was 92%, the “% Inhibition” value ([4]; 20 mg/kg (DMSO), 2 days) was 77% and the “% Inhibition” value ([4]; 20 mg/kg (DMSO), 4 days) was 60%. The “% Inhibition” value ([4]; 20 mg/kg (PBTE:D5W), daily) was over 95%, the “% Inhibition” value ([4]; 20 mg/kg, PBTE:D5W) was over 95% and the “% Inhibition” value ([4]; 20 mg/kg/day, DMSO) was 95%. For the same compound, the “% Inhibition” value ([4]; 20 mg/kg/day, PBTE) was over 95%, the “% Inhibition” value ([4]; 30 mg/kg (DMSO), 2 days) was 91% and the “% Inhibition” value ([4]; 30 mg/kg (DMSO), 3 days) was 87%. For the same compound, the “% Inhibition” value ([4]; 40 mg/kg (PBTE), 2 days) was over 95%, the “% Inhibition” value ([4]; 40 mg/kg/2 days, PBTE) was over 95% and the “% Inhibition” value ([4]; 60 mg/kg (PBTE), weekly) was 51%. The “% Inhibition” value ([4]; 100 mg/kg (PBTE), weekly) was 63%, the efficacy of formulations ([4]; PBTE, PBTE:D5W and DMSO) was “equivalent in vivo inhibition of tumor growth” and the “% Inhibition” value ([4]; nu/nu, 20 mg/kg/day, day 21) was over 95%. For the same compound, the “% Inhibition” value ([4]; nu/nu†, 20 mg/kg/day, day 18, delayed start) was 84%, the “In Vivo inhibition” value ([4]; xenografted athymic mice) was 95% and the “time of complete conversion to B11” value ([8]; 37° C., rat plasma) was at most 2 h. The “conversion to B11 in heat-inactivated plasma” value ([8]; rat, 15 min at 60° C.) was “does not occur” and the “tyrosine phosphorylation of the RR-SRC peptide substrate” value [9] was “dose dependently, inhibited”.
